Values of other authors as cited in US20130184316A1, “METHODS FOR DIAGNOSING AND TREATING CONCUSSIVE DISORDERS” (priority 2010, published 2013).

Columns and labels:
[1] = system: patients with idiopathic cerebellar ataxia; settings: literature (Sprenger et al.); cited from earlier work
[2] = system: patients with type-2 episodic ataxia (EA2); settings: literature reports; cited from earlier work

| SMILES | Gravity-dependent symptoms associated with ataxic episodes [1] | Symptoms of EA2 (including downbeat nystagmus) [2] |
| --- | --- | --- |
| Nc1ccncc1N [3,4-DAP, 3,4-diamino pyridine] | effective in ameliorating some gravity-dependent symptoms | – |
| CC(=O)Nc1nnc(S(N)(=O)=O)s1 [acetazolamide] | – | attenuated |
